Experimental data: PubChem BioAssay (NCI)
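In this assay, cells in 96-well plates receive the compound at five concentrations for 48 hours. Endpoints are linearly interpolated between the surrounding concentrations. TGI denotes the concentration required for complete inhibition of growth.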

Assays:
Assay in all cases: NCI-60 cell line screen, 48 h
KM20L2 colon = tested on: KM20L2 colon
NCI-H23 lung = tested on: NCI-H23 lung
NCI-H522 lung = tested on: NCI-H522 lung
SF-295 CNS = tested on: SF-295 CNS
SF-539 CNS = tested on: SF-539 CNS
MALME-3M melanoma = tested on: MALME-3M melanoma
SF-268 CNS = tested on: SF-268 CNS
COLO 205 colon = tested on: COLO 205 colon
HCT-116 colon = tested on: HCT-116 colon
EKVX NSCLC = tested on: EKVX NSCLC
ACHN renal = tested on: ACHN renal
HT29 colon = tested on: HT29 colon
M19-MEL melanoma = tested on: M19-MEL melanoma
DMS 273 small cell lung = tested on: DMS 273 small cell lung
XF 498 CNS = tested on: XF 498 CNS
DLD-1 colon = tested on: DLD-1 colon
LXFL 529 NSCLC = tested on: LXFL 529 NSCLC
SR leukemia = tested on: SR leukemia
HOP-62 NSCLC = tested on: HOP-62 NSCLC
OVCAR-4 ovarian = tested on: OVCAR-4 ovarian
MOLT-4 leukemia = tested on: MOLT-4 leukemia
OVCAR-8 ovarian = tested on: OVCAR-8 ovarian
UO-31 renal = tested on: UO-31 renal
SK-MEL-28 melanoma = tested on: SK-MEL-28 melanoma
TK-10 renal = tested on: TK-10 renal
K-562 leukemia = tested on: K-562 leukemia
OVCAR-5 ovarian = tested on: OVCAR-5 ovarian
LOX IMVI melanoma = tested on: LOX IMVI melanoma
A498 renal = tested on: A498 renal
RPMI-8226 leukemia = tested on: RPMI-8226 leukemia
SK-MEL-5 melanoma = tested on: SK-MEL-5 melanoma
IGROV1 ovarian = tested on: IGROV1 ovarian
SK-OV-3 ovarian = tested on: SK-OV-3 ovarian
NCI-H226 lung = tested on: NCI-H226 lung
NCI-H460 lung = tested on: NCI-H460 lung
HCT-15 colon = tested on: HCT-15 colon
UACC-257 melanoma = tested on: UACC-257 melanoma
OVCAR-3 ovarian = tested on: OVCAR-3 ovarian
786-0 renal = tested on: 786-0 renal
KM12 colon = tested on: KM12 colon
HOP-18 NSCLC = tested on: HOP-18 NSCLC
SW-620 colon = tested on: SW-620 colon
RXF 393 renal = tested on: RXF 393 renal
SK-MEL-2 melanoma = tested on: SK-MEL-2 melanoma
A549 NSCLC = tested on: A549 NSCLC
HOP-92 NSCLC = tested on: HOP-92 NSCLC
HL-60(TB) leukemia = tested on: HL-60(TB) leukemia
UACC-62 melanoma = tested on: UACC-62 melanoma
U251 CNS = tested on: U251 CNS
M14 melanoma = tested on: M14 melanoma
DMS 114 small cell lung = tested on: DMS 114 small cell lung
HCC-2998 colon = tested on: HCC-2998 colon
CCRF-CEM leukemia = tested on: CCRF-CEM leukemia
SNB-78 CNS = tested on: SNB-78 CNS
CAKI-1 renal = tested on: CAKI-1 renal
SN12C renal = tested on: SN12C renal
SNB-75 CNS = tested on: SNB-75 CNS
SNB-19 CNS = tested on: SNB-19 CNS
RXF-631 renal = tested on: RXF-631 renal

`CCCCNS(=O)(=O)c1ccc(-c2ccc3c(c2)-c2ccc(S(=O)(=O)NCCCC)cc2S3(=O)=O)cc1` gave a TGI (KM20L2 colon) of 15.1 µM, a TGI (NCI-H23 lung) of 43 µM and a TGI (NCI-H522 lung) of 66.2 µM. It also gave a TGI (SF-295 CNS) of 45.1 µM, a TGI (SF-539 CNS) of 27.4 µM and a TGI (MALME-3M melanoma) of 49.2 µM. For the same molecule, the TGI (SF-268 CNS) was 31.3 µM, the TGI (COLO 205 colon) was greater than 100 µM and the TGI (HCT-116 colon) was 54.9 µM. It also gave a TGI (EKVX NSCLC) greater than 100 µM, a TGI (ACHN renal) greater than 100 µM and a TGI (HT29 colon) greater than 100 µM. For the same molecule, the TGI (M19-MEL melanoma) was greater than 100 µM, the TGI (DMS 273 small cell lung) was greater than 100 µM and the TGI (XF 498 CNS) was 23.9 µM. It also gave a TGI (DLD-1 colon) greater than 100 µM, a TGI (LXFL 529 NSCLC) of 33.9 µM and a TGI (SR leukemia) greater than 100 µM. It also gave a TGI (HOP-62 NSCLC) of 37.3 µM, a TGI (OVCAR-4 ovarian) of 15.4 µM and a TGI (MOLT-4 leukemia) greater than 100 µM. For the same molecule, the TGI (OVCAR-8 ovarian) was 24.9 µM, the TGI (UO-31 renal) was greater than 100 µM and the TGI (SK-MEL-28 melanoma) was 29.7 µM. The TGI (TK-10 renal) was 83.2 µM, the TGI (K-562 leukemia) was greater than 100 µM and the TGI (OVCAR-5 ovarian) was greater than 100 µM. The TGI (LOX IMVI melanoma) was 38 µM, the TGI (A498 renal) was 26.6 µM and the TGI (RPMI-8226 leukemia) was greater than 100 µM. The TGI (SK-MEL-5 melanoma) was 28.6 µM, the TGI (IGROV1 ovarian) was greater than 100 µM and the TGI (SK-OV-3 ovarian) was 45.5 µM. It also gave a TGI (NCI-H226 lung) of 32 µM, a TGI (NCI-H460 lung) greater than 100 µM and a TGI (HCT-15 colon) greater than 100 µM. For the same molecule, the TGI (UACC-257 melanoma) was greater than 100 µM, the TGI (OVCAR-3 ovarian) was 76.2 µM and the TGI (786-0 renal) was 27.9 µM. The TGI (KM12 colon) was greater than 100 µM, the TGI (HOP-18 NSCLC) was 54 µM and the TGI (SW-620 colon) was greater than 100 µM. For the same molecule, the TGI (RXF 393 renal) was 30.6 µM, the TGI (SK-MEL-2 melanoma) was 87.9 µM and the TGI (A549 NSCLC) was 57.3 µM. For the same molecule, the TGI (HOP-92 NSCLC) was 41.5 µM, the TGI (HL-60(TB) leukemia) was greater than 100 µM and the TGI (UACC-62 melanoma) was 34.3 µM. For the same molecule, the TGI (U251 CNS) was 55.5 µM, the TGI (M14 melanoma) was 53.7 µM and the TGI (DMS 114 small cell lung) was greater than 100 µM. It also gave a TGI (HCC-2998 colon) greater than 100 µM, a TGI (CCRF-CEM leukemia) greater than 100 µM and a TGI (SNB-78 CNS) of 33.4 µM.

`Cc1ccccc1-n1c(=S)[nH]c2c(sc(=O)n2-c2ccccc2C)c1=O` was tested, and the TGI (KM20L2 colon) was greater than 100 µM, the TGI (CAKI-1 renal) was greater than 100 µM and the TGI (NCI-H23 lung) was greater than 100 µM. For the same molecule, the TGI (NCI-H522 lung) was greater than 100 µM, the TGI (SF-295 CNS) was greater than 100 µM and the TGI (SN12C renal) was greater than 100 µM. The TGI (SF-539 CNS) was greater than 100 µM, the TGI (MALME-3M melanoma) was greater than 100 µM and the TGI (SF-268 CNS) was greater than 100 µM. The TGI (COLO 205 colon) was greater than 100 µM, the TGI (HCT-116 colon) was greater than 100 µM and the TGI (EKVX NSCLC) was greater than 100 µM. The TGI (ACHN renal) was greater than 100 µM, the TGI (HT29 colon) was greater than 100 µM and the TGI (SNB-75 CNS) was greater than 100 µM. For the same molecule, the TGI (M19-MEL melanoma) was greater than 100 µM, the TGI (DMS 273 small cell lung) was greater than 100 µM and the TGI (SNB-19 CNS) was greater than 100 µM. For the same molecule, the TGI (DLD-1 colon) was greater than 100 µM, the TGI (LXFL 529 NSCLC) was greater than 100 µM and the TGI (SR leukemia) was greater than 100 µM. The TGI (HOP-62 NSCLC) was greater than 100 µM, the TGI (OVCAR-4 ovarian) was greater than 100 µM and the TGI (MOLT-4 leukemia) was greater than 100 µM. It also gave a TGI (OVCAR-8 ovarian) greater than 100 µM, a TGI (UO-31 renal) greater than 100 µM and a TGI (SK-MEL-28 melanoma) greater than 100 µM. The TGI (K-562 leukemia) was greater than 100 µM, the TGI (OVCAR-5 ovarian) was greater than 100 µM and the TGI (RXF-631 renal) was greater than 100 µM. It also gave a TGI (A498 renal) greater than 100 µM, a TGI (RPMI-8226 leukemia) greater than 100 µM and a TGI (SK-MEL-5 melanoma) greater than 100 µM. The TGI (IGROV1 ovarian) was greater than 100 µM, the TGI (SK-OV-3 ovarian) was greater than 100 µM and the TGI (NCI-H226 lung) was greater than 100 µM. The TGI (NCI-H460 lung) was greater than 100 µM, the TGI (HCT-15 colon) was greater than 100 µM and the TGI (UACC-257 melanoma) was greater than 100 µM. It also gave a TGI (OVCAR-3 ovarian) greater than 100 µM, a TGI (786-0 renal) greater than 100 µM and a TGI (KM12 colon) greater than 100 µM. The TGI (HOP-18 NSCLC) was greater than 100 µM, the TGI (SW-620 colon) was greater than 100 µM and the TGI (RXF 393 renal) was greater than 100 µM. For the same molecule, the TGI (SK-MEL-2 melanoma) was greater than 100 µM, the TGI (A549 NSCLC) was greater than 100 µM and the TGI (HOP-92 NSCLC) was greater than 100 µM. It also gave a TGI (HL-60(TB) leukemia) greater than 100 µM, a TGI (UACC-62 melanoma) greater than 100 µM and a TGI (U251 CNS) greater than 100 µM. It also gave a TGI (M14 melanoma) greater than 100 µM, a TGI (DMS 114 small cell lung) greater than 100 µM and a TGI (HCC-2998 colon) greater than 100 µM. It also gave a TGI (CCRF-CEM leukemia) greater than 100 µM and a TGI (SNB-78 CNS) greater than 100 µM.
